# Test results published in article PMC2682676 (Diabetes, 2009).
# Key:
# αTC1 cells = assay: Glucagon secretion from αTC1 cells; format: cell-based; conditions: αTC1 cells stimulated with GIP; secretion into the medium
# [1] = tested on: subjects with type 2 diabetes; assay: Gastric emptying by appearance of acetaminophen in plasma during GIP infusion; format: in vivo, human; conditions: 1 g acetaminophen with first bite; last 10 subjects
# [2] = tested on: subjects with type 2 diabetes; format: in vivo, human
compound,measurement,setting,value
"CC[C@H](C)[C@H](NC(=O)[C@H](CO)NC(=O)[C@H](Cc1ccc(O)cc1)NC(=O)[C@H](CC(=O)O)NC(=O)[C@H](CO)NC(=O)[C@@H](NC(=O)[C@H](Cc1ccccc1)NC(=O)[C@@H](NC(=O)CNC(=O)[C@H](CCC(=O)O)NC(=O)[C@H](C)NC(=O)[C@@H](N)Cc1ccc(O)cc1)[C@@H](C)O)[C@@H](C)CC)C(=O)N[C@@H](C)C(=O)N[C@@H](CCSC)C(=O)N[C@@H](CC(=O)O)C(=O)N[C@@H](CCCCN)C(=O)N[C@H](C(=O)N[C@@H](Cc1c[nH]cn1)C(=O)N[C@@H](CCC(N)=O)C(=O)N[C@@H](CCC(N)=O)C(=O)N[C@@H](CC(=O)O)C(=O)N[C@@H](Cc1ccccc1)C(=O)N[C@H](C(=O)N[C@@H](CC(N)=O)C(=O)N[C@@H](Cc1c[nH]c2ccccc12)C(=O)N[C@@H](CC(C)C)C(=O)N[C@@H](CC(C)C)C(=O)N[C@@H](C)C(=O)N[C@@H](CCC(N)=O)C(=O)N[C@@H](CCCCN)C(=O)NCC(=O)N[C@@H](CCCCN)C(=O)N[C@@H](CCCCN)C(=O)N[C@@H](CC(N)=O)C(=O)N[C@@H](CC(=O)O)C(=O)N[C@@H](Cc1c[nH]c2ccccc12)C(=O)N[C@@H](CCCCN)C(=O)N[C@@H](Cc1c[nH]cn1)C(=O)N[C@@H](CC(N)=O)C(=O)N[C@H](C(=O)N[C@H](C(=O)N[C@@H](CCC(N)=O)C(=O)O)[C@@H](C)O)[C@@H](C)CC)C(C)C)[C@@H](C)CC [GIP, Glucose-dependent insulinotropic polypeptide]",glucagon secretion,αTC1 cells,glucagon secretion in a concentration-dependent manner
same,"gastric emptying (plasma acetaminophen levels, AUCALL t = 0-180 min) vs placebo",[1],did not affect gastric emptying
same,"plasma glucagon, early postprandial period vs placebo","[2]; 20 ng/kg/min i.v., 0-60 min, positive AUC0-60 P < 0.01, n = 22",statistically significant augmentation in glucagon secretion
same,"plasma glucose, early postprandial period vs placebo","[2]; 20 ng/kg/min i.v., t = 0-60 min, negative AUC0-60 P < 0.05, n = 22",early transient decrease in plasma glucose
same,"plasma insulin, early postprandial period vs placebo","[2]; 20 ng/kg/min i.v., t = 0-60 min, positive AUC0-60 P < 0.01, n = 22",statistically significant increase in plasma insulin
same,resistin levels vs placebo,"[2]; during 3 h of infusion, data not shown",no effect on resistin levels
